{"source": "patent US20230065158A1", "about": "“OXABICYCLOHEPTANES FOR TREATMENT OF SMALL CELL LUNG CANCER” (Lixte Biotechnology, Inc., priority 2021, published 2023)", "key": {"[1]": {"test_system": "extensive-stage small cell lung carcinoma", "conditions": "first study subject", "source_text": "The Phase Ib study is a single arm study expected to enroll 18 evaluable patients (maximum 30) entered in groups of 3 at escalating doses of LB-100 using the traditional 3+3 design. […] Each cycle is defined as 3 weeks (21 days). Patients will then proceed to maintenance with LB-100 and atezolizumab. Patients who discontinue study therapy without disease progression will continue to be evaluated for tumor response using RECIST v1.1 (Appendix B) guidelines every 6-8 weeks until disease progression, death, or study closure.\nDose Escalation: The Phase I dose-finding will use a traditional 3+3 to determine the maximum tolerated dose (MTD), based on first cycle DLTs. A maximum of 4 dose levels of LB-100 will be explored. […]\nTreatment Overview: This Phase Ib study of LB-100 diluted in 50 mL of normal saline for injection will be administered intravenously in the outpatient clinic over 15 minutes in patients with extensive-stage small cell lung cancer. […] All three patients at each dose level will be assessed for evidence of limiting toxicity through their return visit day 21 (and any delay prior to the start of cycle 2) before the decision is made for dose escalation in the next cohort."}, "H69 cells": {"test_system": "H69 cells", "test": "Glucose uptake assay (glucose oxidase)", "format": "cell-based", "conditions": "LB-100 20 μM, compared with control without cells", "from_the_text": "(§1) FIGS. 4A-4F depict a reactome pathway analysis of PamGene PTKs and STKs after LB-100 treatment of H524 cells and Biolog phenotype MicroArray. […] Table includes 10 carbon sources affected by LB-100 (n=3). […] P<0.001 (***) for control (untreated cells) vs. LB-100. FIG. 4D: Amplex Red Glucose/Oxidase assay kit was used to measure glucose level in cell culture media. […] Glucose concentration detected in initial medium and counted as 100%. Subtracting final medium level of glucose from initial glucose medium concentration yielded % glucose in the medium with cells (n=3). Effect of LB-100 on MET phosphorylation. FIG. 4E: H524 and H69 cells were treated overnight with LB-100 (H524—5 μM and H69—20 μM) following by stimulation with 100 ng/ml HGF in 10 min. Cells were collected and lysed for WB analysis with pMET and total MET antibody. Pan-actin was used as loading control (n=3). FIG. 4F: H524 cell lysates (control, LB-100, carboplatin and combination (LB-100/carboplatin) were analyzed by western blots to check phosphorylation status of MET at Ser985 and Tyr1234/1235. Actin was used as a loading control (n=3). […]\nGlucose consumption was determined by using a colorimetric glucose assay (Invitrogen, Carlsbad, Calif.) following the manufacturer's instructions. […] The uptake of glucose was determined compared with initial glucose concentration in the cell culture medium, which was taken as 100%."}, "H446 spheroids": {"test_system": "H446 spheroids", "test": "H446 spheroids with drugs and T cells, live imaging", "format": "cell-based", "conditions": "without T cells, 48 h", "description": "FIGS. 7A-7G depict results of T cells infiltration in H446 spheroids in the presence of LB100 and atezolizumab. FIG. 7A: Schematic of the effect of activated T cells on H446 spheroid degradation. At time point 0, single spheroids in 96 well plate were treated with LB-100, atezolizumab and T cells. Beads mimic in vivo T cell activation by two action signals CD3 and CD28. IncuCyte® Live-Cell Analysis System was used for the spheroidal imaging. Right panel presents spheroidal degeneration after 48 h incubation with LB-100, atezolizumab and activated T cells. FIGS. 7B and 7C: Automated image analysis provides metrics (0 h-μm, […]) and spheroid area (yellow-bright field mask). Column bars present mean values of spheroids at 0h. Representative images in bright field mask. […]\nCytotoxic CD8+ cells were isolated from whole blood, buffy coat of healthy donors following the protocol described in the Methods. […] Spheroid survival was monitored for 48 hours and their diameters were measured from phase contrast images. […]\nH446 were generated as described in Materials and Methods (Monitoring of spheroid growth and cytotoxicity with the IncuCyte® Live-Cell Analysis System and IncuCyte® Cytotox reagent) following incubation with T cells and drugs. The effect of LB100 and atezolizumab in the presence of T cells was monitored with IncuCyte 3D Multi-Tumor Spheroid assay."}, "MET": {"test_system": "MET", "test": "MET phosphorylation (Tyr 1234/1235) western blot after HGF stimulation", "format": "cell-based", "conditions": "HGF 10 min", "from_the_text": "as §1, with “FIG. 4E: H524 and H69 cells were treated overnight with LB-100 (H524—5 μM and H69—20 μM) following by stimulation with 100 ng/ml HGF in 10 min. Cells were collected and lysed for WB analysis with pMET and total MET antibody. Pan-actin was used as loading control (n=3).” left out\nWhole cell lysates were prepared using RIPA lysis buffer and proteins were detected by immunoblotting using antibodies specific against PP2A A, PP2A C, Phospho-Histone H2AX (S139), MET, pMet (Tyr 1234/1235), Cleaved Caspase 3 and pan-Actin antibodies from CST (City of Industry, CA), Cleaved PARP1 (Santa Cruz Biotechnology, Dallas, Tex.) and pMET (Ser985) (ThermoFisher Scientific, Waltham, Mass.) were used as described previously (22)."}}}
{"molecule": "C[NH+]1CCN(C(=O)C2C(C(=O)O)[C@H]3CC[C@@H]2O3)CC1", "note": "(stereo in doubt) [LB-100, 3-[(4-Methylpiperazin-1-yl)carbonyl]-7-oxabicyclo[2.2.1]heptane-2-carboxylic acid]", "values": [{"measurement": "partial objective response", "setting": "[1]; after the 2nd cycle, LB-100 0.83 mg/m2 days 1 & 3 with carboplatin/etoposide/atezolizumab", "value": 47, "unit": "%"}, {"measurement": "decrease in measurable tumor", "setting": "[1]; following the 4th and last cycle of induction therapy", "value": 58, "unit": "%"}, {"measurement": "reduction of consumption of glucose in media", "setting": "H69 cells", "value": 65, "unit": "%"}, {"measurement": "effect on spheroids (degeneration), drug alone", "setting": "H446 spheroids", "value": "moderate effect"}, {"measurement": "level of HGF phosphorylation of MET", "setting": "MET; H69, LB100 20 μM", "value": "significantly decreased"}, {"measurement": "MET basal and HGF activated phosphorylation", "setting": "MET; H524, LB100 5 μM", "value": "almost abrogated"}]}
